In publication PMC7171691 (Journal of Tropical Medicine, 2020):
≈ marks a conversion by molar mass, not a printed value. Entries after “also recorded” stand apart in the source; their conditions may differ. Where two headings read alike, the source gives them in different places.

Legend:
[1] = system: P. falciparum 3D7 strains (CQ sensitive); assay: In vitro drug sensitivity, tritiated hypoxanthine incorporation assay; assay type: cell-based, Plasmodium falciparum; settings: P. falciparum 3D7, CQ sensitive, [3H]hypoxanthine uptake, 48 hours
Method: Further dilutions were prepared on the day of biological assays. All the drug solutions were stored at 4°C for later use.

P. berghei ANKA = assay: In vivo efficacy, 4-day oral treatment of infected mice; design: species or system Plasmodium berghei in female Swiss albino mice; settings: for ED50: P. berghei ANKA sensitive strain in mice, four days of oral treatment; for Average parasitaemia, Day 7 / Average parasitaemia, Day 9 / Average parasitaemia, Day 11: after stopping the treatment with 10 mg/kg; for Number of mice which survived up to 11 days: 5 mice per group
Method: Female Swiss albino mice were collected and kept in the animal house of the Center for Biotechnology and Research Development at the Kenya Medical Research Institute (KEMRI), where the animal experiments were carried out. The animals were six weeks old, weighing 20 to 22 g, and they were kept in mice cages and were allowed to access mice pencils (Ungafeed Company Ltd) and water before experimental testing. Plasmodium berghei ANKA strains, sensitive to quinolone and artemisinin-based drugs, were obtained from the Unit of Malaria, Center for Biotechnology and Research and Development, Kenya Medical Research Institute. Parasites were maintained and cryopreserved in a freezer (−80°C). The parasite was subsequently maintained in the laboratory by serial blood passage from mouse to mouse on a weekly basis.
This consisted of in vivo evaluation of hybrid drug against P. berghei ANKA, a rodent parasite which is commonly used in antimalarial studies. Female Swiss albino donor mouse was injected intraperitoneally with 0.2 ml of inoculums of 1 × 10^7 parasitized erythrocytes, and P. berghei ANKA strain was obtained from the donor mouse. Parasitaemia was assessed after 5 days under microscope using the Giemsa staining technique. The donor mouse was sedated using carbon dioxide to collect blood via cardiac puncture in a heparinized tube using a syringe and a needle. Carcasses were pooled in a biohazard container and stored at room temperature while waiting to be incinerated. Afterward, the experimental mice were infected with inoculums of 1 × 10^7 parasitized erythrocytes using an intraperitoneal method. The mice were grouped into five groups consisting of 5 mice per group. […] Blood for making thin blood smear was collected from the tip of the mouse tail. The efficacy of the drug was measured by comparison of blood parasitaemia after the four days of therapy (i.e., on day 5 postinfection). The ones still alive at the end of the experiments were killed by using carbon dioxide gas followed by incineration.
The determination of the dose to be administered was calculated individually according to each mouse weight. In this regard, these formulas were applied: HED (mg/kg) = Animal Dose (mg/kg) ∗ [Animal km/Human km], where HED stands for human equivalent dose and km which is a conversion factor. With km (a constant) = Weight/Body surface area. For mice of 0.02 kg, with a body surface area of 0.007, km = 0.02/0.007 = 3 [15].(3) Dosage mg/kg =Drug concentration mg/ml∗Volume ml/Body weightkg.
From formula (2),(4) Volume ml of drug to be given to each mouse=Body weight kg∗Dosage mg/kg/Drug concentration mg/ml .
The parasitaemia was checked for every 24 hours from the time of infection for 4 days. Thin blood smears were prepared from each mouse tail venous blood. The smears were prepared by the Giemsa staining technique, and the parasitaemia of individual mouse had been checked using a light microscope. The following formula was used to calculate the percentage parasitaemia:(5) The Percentage of parasitaemia=Number of parasitized RBCs/field/Total number of RBCs/field ∗100.
After 4 days, the percentage (%) chemosuppression of each drug was determined using the following formula [17]:(6) Percentage chemosuppression= 100−A−B/A×100, where A is the mean parasitaemia in the negative control group and B is the parasitaemia in the test group. The dose that cured 50% of infected animals had been determined as effective dose (ED50) using a nonlinear regression logistic dose-response model.

MTT cytotoxicity assay = assay type: cell-based, African green monkey (Cercopithecus aethiops); settings: African green monkey (Cercopithecus aethiops)
Method: (§1) To conduct in vitro toxicity, stock solutions of the test compound and reference drugs were prepared with sterile water. […] The test samples were prepared as a 1 mg·ml^−1 stock solution. Further dilutions were prepared on the day of biological assays. All the drug solutions were stored at 4°C for later use. Vero cells (Vero E-6) were obtained from the Center for Traditional Medicine Drugs and Research (CTMDR), KEMRI. Vero cells are kidney cells extracted from an African green monkey (Cercopithecus aethiops). […] Cells were maintained in Minimum Essential Eagle's Medium (MEM) containing 10% fetal bovine serum (FBS), PenStrep, and glutamine. Vero cells were cultured using T-75 culture flasks. The flasks were kept at 37°C in 5% CO2, and the cells were passaged every 2 to 3 days to keep the cells alive. Trypsinization was carried out to detached cells which overlap each other and counted using a hemocytometer (Neubauer).
(§2) Using a 96-microwell plate, a cell density of 20,000 vero cells were seeded and incubated for 24 hours at 37°C under 5% CO2 to allow cells to attach to the surface/base of the plate. […] The plates were incubated for 48 hours at 37°C under 5% CO2 to allow the reaction to occur. After 48 hours, 0.5 mg/ml of 3-(4, 5-dimethylthiazol-2-yl)-2,5-diphenyltetra-zolium bromide (MTT) was added for calorimetric measurement of the ability of a drug to kill the vero cell lines. The plates were incubated at 37°C for 3 hours. 100 μL of 100% DMSO was added to each well and mixed to ensure cell lysis and dissolving of the formazan crystals. Doxorubicin was used as a control drug.
(§3) The amount of formazan measured was directly proportional to the number of viable cells.

[2] = design: method as in PMID 23433124; settings: cited from earlier work
acute falciparum malaria = settings: patients, 0 to 250 mg artesunate together with a curative dose of mefloquine; cited from earlier work
[3] = design: method as in PMID 21189459; settings: 20 mg/kg, oral route, mice; cited from earlier work
vero cells = settings: cited from earlier work
Solubility observations = assay type: physicochemical
vero cells (Vero E-6) = assay: MTT cytotoxicity assay; assay type: cell-based, African green monkey (Cercopithecus aethiops); settings: vero cells
Method: as §1, §2, §3

[4] = Acute oral toxicity in mice; assay type: in vivo; settings: for Number of dead mice: 3 mice per group, head says after 28 days, text 14 days, listed as sarcosine-aniline hybrid drug; for Mean average of weight after 14 days: initial weights 20 to 22 g
Method: In this step, acute toxicity was performed. Three dosages, such as 2000 mg·kg^−1, and 300 mg·kg^−1, and 50 mg/kg were administered orally to mice in three groups, and the fourth group which served as a control received water as a placebo. Each group consisted of 3 mice, and the weight and number of dead mice were monitored and recorded after each 4 days over an interval of 14 days. Clinical or physical signs were also subjected to be recorded during the study period. At the end of the experiment, the mice were killed by using concentrated carbon dioxide gas followed by incineration. The number of dead mice was to be recorded, and a semilog plot of log concentration against percentage (%) response was made.

[5] = Acute oral toxicity in mice; settings: mouse, in vivo, 28 days
[6] = 10 mg/kg oral, after 4 days of treatment
[7] = Plasmodium falciparum, read-out: IC50
[8] = Plasmodium berghei, 96 h, read-out: ED50

| Compound | Percentage of chemosupression of parasitaemia (P. berghei ANKA; [6]) | ED50 (P. berghei ANKA) | Average parasitaemia, Day 7 (P. berghei ANKA) | Average parasitaemia, Day 9 (P. berghei ANKA) | Average parasitaemia, Day 11 (P. berghei ANKA) | Number of mice which survived up to 11 days (P. berghei ANKA; dosage 0.625 mg/kg oral) | Number of mice which survived up to 11 days (P. berghei ANKA; dosage 1.25 mg/kg oral) | Number of mice which survived up to 11 days (P. berghei ANKA; dosage 2.5 mg/kg oral) | Number of mice which survived up to 11 days (P. berghei ANKA; dosage 5 mg/kg oral) | Number of mice which survived up to 11 days (P. berghei ANKA; dosage 10 mg/kg oral) | further results |
| --- | --- | --- | --- | --- | --- | --- | --- | --- | --- | --- | --- |
| 3-chloro-4-(4-chlorophenoxy) aniline | 68% | 3.61 mg/kg | 6.97% | 9.03% | 11.84% | 1 | 3 | 3 | 2 | 4 | IC50 [1]: 0.02286 ± 0.00126 µg/mL |
| C[C@H]1[C@H](OC(=O)CCC(=O)Nc2ccc(Oc3ccc(Cl)cc3)c(Cl)c2)O[C@@H]2O[C@@]3(C)CC[C@H]4[C@H](C)CC[C@@H]1[C@@]24OO3 [Artesunate-aniline hybrid] |  | 3.56 mg/kg |  |  |  | 1 | 3 | 3 | 2 | 3 |  |
| C[C@H]1[C@H](OC(=O)CCC(=O)O)O[C@@H]2O[C@@]3(C)CC[C@H]4[C@H](C)CC[C@@H]1[C@@]24OO3 [Artesunate] | 100% |  | 0.00% | 0.2% | 0.67% | 2 | 3 | 4 | 3 | 5 | IC50 [1, 7]: 0.00263 ± 0.00038 µg/mL (≈ 0.00684 µM); Parasites observed under the microscope (P. berghei ANKA; [6]): No parasites were observed; ED50 (P. berghei ANKA; [8]): 2.94 mg/kg; Number of mice which survived up to 11 days (P. berghei ANKA; dosage 10 mg/kg oral, listed as artesunate): all mice; CC50 at 48 h (MTT cytotoxicity assay): 19.7 µg/mL (≈ 51.2 µM); ED50 ([2]; intraperitoneal route): < 1 mg/kg; ED50 ([2]; oral route, artesunate with 80 mg/kg as highest dosage): 1.8 mg/kg; ED50 (acute falciparum malaria): 1.6 mg/kg |
| CCN(CC)CCCC(C)Nc1ccnc2cc(Cl)ccc12 (stereo not shown) [Chloroquine] | 100% |  | 0.00% | 0.03% | 0.42% | 3 | 3 | 4 | 4 | 5 | Number of mice which survived up to 11 days (P. berghei ANKA; dosage 10 mg/kg oral, listed as chloroquine): all mice; Chemosupression [3]: 100%; Concentrations not revealing cytotoxicity effects (vero cells): ≤ 50 µg/mL; Concentrations showing major cytotoxicity (vero cells): ≥ 500 µg/mL |
| COc1cccc2c1C(=O)c1c(O)c3c(c(O)c1C2=O)C[C@@](O)(C(=O)CO)C[C@@H]3O[C@H]1C[C@H](N)[C@H](O)[C@H](C)O1 [Doxorubicin] |  |  |  |  |  |  |  |  |  |  | CC50 at 48 h (MTT cytotoxicity assay): 1.96 µg/mL (≈ 3.61 µM) |
| CNCC(=O)O [Sarcosine, N-methyl glycine] |  | did not show in vivo activity; also recorded: No activity |  |  |  | 0 | 1 | 1 | 2 | 1 | IC50 [1]: did not show in vitro activity; also recorded: No activity; ED50 (P. berghei ANKA; listed as sarcosine): not detectable; Solubility in water (Solubility observations): completely soluble |
| CNCC(=O)Nc1ccc(Oc2ccc(Cl)cc2)c(Cl)c1 [Sarcosine-aniline hybrid, 3-Chloro-4(4-chlorophenoxy) Methyglycylanilde] |  |  | 9.74% | 12.98% | 15.61% | 1 | 1 | 1 | 2 | 3 | IC50 [1, 7]: 0.0448 ± 0.0047 µg/mL (≈ 0.138 µM); ED50 (P. berghei ANKA; [8]): 6.49 mg/kg; CC50 at 48 h (MTT cytotoxicity assay; Vero E-6 cells, vero cells, MTT, 48 hours, triplicate, read-out: Mean CC50): 50.2 µg/mL (≈ 154 µM); Mean difference of CC50 versus artesunate (vero cells (Vero E-6); sarcosine-aniline hybrid VS artesunate, in µg/mL): 30.48; Mean difference of CC50 versus chloroquine (vero cells (Vero E-6); sarcosine-aniline hybrid VS chloroquine): -7.78; Mean difference of CC50 versus doxorubicin (vero cells (Vero E-6); sarcosine-aniline hybrid VS doxorubicin, in µg/mL): 48.21; Number of dead mice ([4]; 50 mg/kg oral): No mouse died; Mean average of weight after 14 days ([4]; 50 mg/kg oral): 22.24 g; Number of dead mice ([4]; 300 mg/kg oral): No mouse died; Mean average of weight after 14 days ([4]; 300 mg/kg oral): 21.58 g; Number of dead mice ([4]; 2000 mg/kg oral): No mouse died; Mean average of weight after 14 days ([4]; 2000 mg/kg oral): 21.34 g; Therapeutic index (LD50/ED50) ([4]; LD50 >5000 mg/kg, ED50 6.49 mg/kg): greater than 770.41; LD50 at 14 days ([4]; mouse, in vivo, oral, mice, estimated from no deaths at 2000 mg/kg): > 5000 mg/kg; OECD/OCDE guideline toxicity category ([4]; oral acute toxicity, mice): category 5; Therapeutic index relative to that of artesunate ([4]; versus artesunate therapeutic index of 4 from Xie et al. [31]): 192.6 fold; Solubility in dimethyl sulfoxide (DMSO) (Solubility observations; DMSO): soluble; Solubility in Tween 80 (Solubility observations; Tween 80): slightly soluble; Solubility in water (Solubility observations): very low; Number of dead mice [5]: 0 |
